The METLIN SMRT retention time set (Domingo-Almenara et al. 2019)

Experiment: gradient 5% acetonitrile 3 min, to 50% in 2 min, to 85% in 15 min, held 3 min, 100 µL/min
Details: column: Zorbax Extend-C18 2.1 x 50 mm; eluents: water / acetonitrile, 0.1% formic acid
Method in brief: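 Standards, all pure, were combined into mixtures of ~100 molecules and run at 100 μL/min on a Zorbax Extend-C18 column (2.1 × 50 mm, 1.8 μm) with water and acetonitrile, each containing 0.1% formic acid. A coupled quadrupole time-of-flight mass spectrometer operated in positive and negative ionization mode. Retention time values come from computationally picked adduct peaks, each inspected manually.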

Compound | RP-LC retention time [s]
COC(=O)c1c(C)[nH]c(C(=O)N2CCCC(C(=O)NCCC3=CCCCC3)C2)c1C (configuration not stated) | 825
CCCC(=O)N1CCc2c([nH]c3ccccc23)C1c1ccc(F)cc1 (configuration not stated) | 698
CCOc1ccccc1NS(=O)(=O)c1cc(-c2c(CC)noc2NC(C)=O)ccc1OC | 840
CC(C)c1nc2ccc(C(=O)NCCc3c[nH]c4ccc(Cl)cc34)cc2o1 | 941
CCOc1ccc(S(=O)(=O)N2CCC(C(=O)NCC3CCCO3)CC2)cc1 (configuration not stated) | 750
O=C(CN1CC=C(c2cnn(-c3ccccc3)c2)CC1)NCc1ccccn1 | 594
Cc1noc2nc(C)n(CC(=O)NCc3cccc(F)c3)c(=O)c12 | 740
CC(C)CCNC(=O)CSc1nc(N2CCc3ccccc3C2)nc2ccccc12 | 917
CCn1cc(-c2nc(C)c(C(=O)NCc3cc(F)cc(F)c3)s2)c2cccnc21 | 884
Cc1cc(Br)ccc1NC(=O)C1CCCN(c2nccnc2Oc2ccccc2)C1 (configuration not stated) | 1120
CCOC(=O)C1=C(CN2CCN(Cc3ccccc3)CC2)NC(=O)NC1c1ccc(OC(C)C)cc1 (configuration not stated) | 713
CN(CC1(C)CCOCC1)S(=O)(=O)c1ccc(Cl)s1 | 976
N#Cc1c(N)nc(SCc2csc(-c3ccc(Cl)cc3)n2)c(C#N)c1-c1ccc(OCCO)cc1 | 1130
CCCS(=O)(=O)N1CC(=O)N(c2cccc(F)c2)C(C)(C(=O)NC2CCCCCC2)C1 (configuration not stated) | 956
CSc1ccccc1NC(=O)c1cnc(-c2ccc(C)cc2)nc1-c1ccncc1 | 973
O=C(NCCN1CCOCC1)c1nc2ccccn2c1-c1ccc(F)cc1 | 616
COCC(=O)N(C1CCOCC1)C1CCN(S(=O)(=O)c2ccccc2F)CC1 | 740
COc1ccc(NC(=O)C2CCCN(c3nccnc3Sc3ccccc3)C2)cc1 (configuration not stated) | 1030
CSCc1csc(NC(=O)NCc2ccc(F)cc2)n1 | 754
Cc1cccc(NC(=O)N2CCCC2c2nc(-c3ccccc3)no2)c1C (configuration not stated) | 977
Cc1cc(NC(=O)Nc2ccc3nc(N4CCN(C)CC4)cc(C)c3c2)ccc1Br | 642
COc1ccc(CN2CC(C(=O)NC3(c4nc(C)no4)CCCCC3)CC2=O)cc1 (configuration not stated) | 706

Compound | RP-LC retention time [s]
O=C1C2N=NN(Cc3nc(-c4ccccc4)no3)C2C(=O)N1c1ccccc1 (configuration not stated) | 906
O=C(Nc1cccc(Cl)c1)c1ccccn1 | 1010
C[C@H]1CN(C(=O)Nc2ccc(Cl)cc2)C[C@@H]1c1nc(-c2cccnc2)no1 | 863
O=C(NCCc1csc(-c2ccccc2)n1)C1CCN(C(=O)c2ccco2)CC1 | 749
O=C(Cn1cccc1-c1nnc(C2CCC2)o1)NCc1ccc(Cl)cc1 | 907
CCCN(CCC)C(=O)C1CCN(C(=O)c2ccccc2Cl)CC1 | 602
Cc1ccc(N2CC(c3noc(-c4ccc(N(C)C)cc4)n3)CC2=O)cc1 (configuration not stated) | 980
CC(=O)NCCSc1c(-c2ccc(Cl)cc2)[nH]c2ccccc12 | 800
CC(C)NC(=O)N1CCCC(OCc2nc(-c3ccccc3)no2)C1 (configuration not stated) | 551
CCCN1C(=O)COc2ccc(-c3noc(-c4cccc5[nH]ccc45)n3)cc21 | 1070
O=C(c1ccc(N2C[C@H]3C[C@H](C2)[C@H]2CCCC(=O)N2C3)nc1)N1CCC2(CC1)OCCO2 | 584
Cc1cccc(NC(=O)c2csc(-c3cn(C)c4ncccc34)n2)c1C | 1050
Cc1nn(CCC(=O)NCCCN2CCc3ccccc3C2)c(=O)c2nn(-c3ccccc3)c(C)c12 | 648
CCN1c2ccc(F)cc2C(=O)NC12CCN(C(=O)c1ccc3c(c1)OCO3)CC2 | 749
CC(C)C(=O)Nc1cccc(N2CC(C(=O)Nc3ccc(C(C)C)cc3)CC2=O)c1 (configuration not stated) | 886
CC(C(=O)Nc1nc2ccc(S(C)(=O)=O)cc2s1)n1nnc2ccccc2c1=O (configuration not stated) | 706
COc1ccc2[nH]c3c(c2c1)CCNC31CCN(S(=O)(=O)c2c(C)noc2C)CC1 | 675
CCCNC(=O)CCc1nc2ccccc2n(CC(=O)NCc2ccccc2Cl)c1=O | 794
Cc1cc2c(=O)n(CC(=O)NCc3ccc(F)cc3Cl)ccc2s1 | 814
CCn1c(C(=O)N2CCN(Cc3ccccc3)CC2)cc2c(-c3cccs3)nn(-c3ccccc3)c21 | 819
Cc1ccc(N2C(=O)c3ccc(C(=O)N4CCN(c5ccccc5F)CC4)cc3C2=O)cc1 | 982
CC(=O)N1CCc2cc(C(=O)NCc3ccccc3)ccc21 | 736

Compound | RP-LC retention time [s]
O=C1C2N=NN(Cc3nc(-c4ccc(Br)cc4)no3)C2C(=O)N1c1ccccc1 (configuration not stated) | 1030
O=S(=O)(c1ccc2c(c1)-c1oncc1CO2)N1CCN(C(c2ccccc2)c2ccccc2)CC1 | 1130
O=C(Cn1cnc2c(sc3nc(-c4ccccc4)ccc32)c1=O)Nc1ccc(F)c(Cl)c1 | 1110
O=C(c1ccc(-c2cccnc2)nc1)N1CCN(c2ccccc2)CC1 | 663
COc1ccc(-c2[nH]ncc2CN2CC(F)(F)C[C@H]2CN2CCOCC2)cc1 | 590
COc1ccc(S(=O)(=O)N2CC3CN(C(=O)c4ccc(C#N)cc4)CC(C2)O3)cc1 | 773
C=CCN1C(=O)COc2ccc(-c3nc(NC(=O)c4ccc(OC)c(OC)c4)sc3C)cc21 | 985
CCCCNC(=O)C1CCC(=O)N(c2ccc(OC)cc2)C1c1ccc(OC)cc1 (configuration not stated) | 756
O=C(c1ccncc1)N1CCC2(CC1)N=C(c1ccccc1)NO2 | 611
O=S(=O)(c1ccc2nc(N3CCN(c4ccccc4)CC3)ccc2c1)N1CCCC1 | 921
Cc1ccc(-c2nnc(Cc3nc(-c4ccc(OC(C)C)cc4)no3)o2)cc1C | 1240
O=c1c2ccccc2c(-c2nc(-c3cccnc3)no2)cn1-c1cccc(F)c1 | 709
O=C(NCCc1ccncc1)C1CCc2sc(C(=O)N3CCCC3)cc2C1 (configuration not stated) | 506
Cc1ccc(C(=O)N(CCCN)[C@@H](c2nc3cc(Cl)ccc3c(=O)n2Cc2ccccc2)C(C)C)cc1 | 990
O=C(Nc1cc(F)cc(F)c1)Nc1cccc(-c2ccc(N3CCOCC3)nn2)c1 | 748
Cc1ccc(NC(=O)C(C)Oc2cc(C(F)(F)F)c3c(C)nn(C)c3n2)c(C)c1 (configuration not stated) | 920
COc1cccc(OC)c1C(=O)Nc1nc(-c2ccc3c(c2)NC(=O)C(C)O3)c(C)s1 (configuration not stated) | 866
COc1ccc(-c2noc(Cn3ccnc3)n2)cc1 | 601
CC(C)Cn1c(-c2cccc(C(=O)NCC3CCCO3)c2)nc2cccnc21 (configuration not stated) | 699
O=c1ccc(-c2ccc3c(c2)OCO3)nn1CCc1nc(-c2ccccc2Cl)no1 | 966
O=C(Cc1ccccc1F)N1CCC(c2nc(-c3ccccc3)no2)C1 (configuration not stated) | 922
CC(NC(=O)c1ccc2c(c1)CCCN2S(C)(=O)=O)c1ccccc1 (configuration not stated) | 862

Compound | RP-LC retention time [s]
CCc1noc(NC(C)=O)c1-c1ccc(C)c(S(=O)(=O)Nc2ccc(F)cc2C)c1 | 848
O=C1COc2ccc(-c3csc(NC(=O)c4ccc(Br)cc4)n3)cc2N1 | 946
CCOC(=O)CCNC(=O)NCc1nnnn1-c1ccc(OCC)cc1 | 675
O=C1CC(c2noc(-c3cc(F)ccc3Cl)n2)CN1c1ccc(F)cc1 (configuration not stated) | 1020
Cc1nn(-c2ccccc2)c(C)c1CCc1nn2c(-c3cccc(F)c3)nnc2s1 | 934
Cc1ccc(-c2nnc(N3CCC(C(=O)NCc4ccc(C)o4)CC3)o2)cc1 | 853
CCC(C(=O)N1CCN(c2ccccn2)CC1)n1c2ccccc2c2cnn(C)c(=O)c21 (configuration not stated) | 638
CC12COC3(C(=O)Nc4ccc(F)cc4)CC1CCC32C (configuration not stated) | 1030
CCOC(=O)Cc1csc(NC(=O)CSc2nnc3ccccn23)n1 | 617
Cc1ccccc1CNC(=O)Cn1c(C)nc2onc(C)c2c1=O | 752
CCc1nn(CC)c(=O)c2cc(S(=O)(=O)NCc3cccc(Cl)c3)cn12 | 982
Cn1cc(-c2ccncc2)cc1C(=O)N1CCN(c2ccc(Cl)cc2)CC1 | 682
CN(Cc1cnc2nc(N)nc(N)c2n1)c1ccc(C(=O)NC(CCC(=O)O)C(=O)O)cc1 (configuration not stated) | 666
CN(C)c1nc2cc(C(=O)N3CCC4(CC3)OCCO4)sc2n1-c1ccc(F)cc1 | 654
CCc1ccc(S(=O)(=O)Nc2ccc3c(c2)N(C(=O)c2cccs2)CC3)s1 | 923
Cc1cccc(NC(=O)Cn2cc(C(=O)N3CCCC3)c(=O)c3ccc(C)nc32)c1 | 698
COc1ccc(OC)c(NC(=O)c2c(C)oc3nc(C)nc(N4CCOCC4)c23)c1 | 818
CCOCC(=O)N1CCCCCNC(=O)[C@@H]2CCCC[C@@H]21 | 657
O=C(c1ccc(-c2cccs2)nc1)N1CCN(C2CCCCC2)CC1 | 711
Cc1nn(CC(=O)N2CCCC(C)C2)c(=O)c2nc(-c3ccccc3)sc12 (configuration not stated) | 875
Cc1nc(C(=O)Nc2ccc(F)cc2Cl)c(C)o1 | 1040
